Values after ≈ are worked out from the molar mass of the structure shown.
What was measured:
Experiment in all cases: In vitro antibacterial evaluation: minimum inhibitory concentration (MIC), broth dilution method
Type in all cases: cell-based
Escherichia coli = details: 18 hours at 35° C.
Summary of the method: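 Susceptibility determined by NCCLS-recommended broth dilution (M7-A2), Muller-Hinton II […]. Concentration span 64-0.06 μg/mL, inoculum 5×10^5 CFU/mL. Isolates include strains resistant to methicillin, penicillin and/or vancomycin.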

Enterococcus sp. = details: 18 hours at 35° C.
Summary of the method: (§1)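 MIC by broth dilution in Mueller-Hinton II medium following NCCLS M7-A2. Inoculum was 5×10^5 CFU/mL and antibiotic was tested over 64-0.06 μg/mL. Gram-positive panel included clinical isolates resistant to methicillin, penicillin and/or vancomycin.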

Staphylococcus sp. = test system: Staphylococcus sp.
Summary of the method: as §1

Streptococcus sp. = details: 18 hours at 35° C.
Summary of the method: as §1

[1] = broth dilution, inoculum 5×10^5 CFU/mL

MIC Escherichia coli (ATCC 25922) (Escherichia coli; Escherichia coli (ATCC 25922)): >64 µg/mL
MIC Escherichia coli (GC 4559) (Escherichia coli; Escherichia coli (GC 4559)): >64 µg/mL
MIC Escherichia coli (GC 4560) (Escherichia coli; Escherichia coli (GC 4560)): 16 µg/mL (≈ 11.2 µM)
MIC Enterococcus avium (GC 4558) (Enterococcus sp.; Enterococcus avium (GC 4558)): 16 µg/mL (≈ 11.2 µM)
MIC Enterococcus faecalis (ATCC 29212) (Enterococcus sp.; Enterococcus faecalis (ATCC 29212)): 32 µg/mL (≈ 22.4 µM)
MIC Enterococcus faecalis (GC 2242) (Enterococcus sp.; Enterococcus faecalis (GC 2242)): 32 µg/mL (≈ 22.4 µM)
MIC Enterococcus faecalis (GC 2691) (Enterococcus sp.; Enterococcus faecalis (GC 2691)): 32 µg/mL (≈ 22.4 µM)
MIC Enterococcus faecalis (GC 3059) (Enterococcus sp.; Enterococcus faecalis (GC 3059)): 32 µg/mL (≈ 22.4 µM)
MIC Enterococcus faecalis (GC 4552) (Enterococcus sp.; Enterococcus faecalis (GC 4552)): 32 µg/mL (≈ 22.4 µM)
MIC Enterococcus faecalis (GC 4553) (Enterococcus sp.; Enterococcus faecalis (GC 4553)): 32 µg/mL (≈ 22.4 µM)
MIC Enterococcus faecalis (GC 4554) (Enterococcus sp.; Enterococcus faecalis (GC 4554)): 32 µg/mL (≈ 22.4 µM)
MIC Enterococcus faecalis (GC 6189) (Enterococcus sp.; Enterococcus faecalis (GC 6189)): 32 µg/mL (≈ 22.4 µM)
MIC Enterococcus faecium (GC 2243) (Enterococcus sp.; Enterococcus faecium (GC 2243)): 32 µg/mL (≈ 22.4 µM)
MIC Enterococcus faecium (GC 4556) (Enterococcus sp.; Enterococcus faecium (GC 4556)): 32 µg/mL (≈ 22.4 µM)
MIC Enterococcus faecium (GC 4557) (Enterococcus sp.; Enterococcus faecium (GC 4557)): 8 µg/mL (≈ 5.59 µM)
MIC Enterococcus avium (GC 4558) (Enterococcus sp.; [1]): 16 µg/mL (≈ 11.2 µM)
MIC Enterococcus faecalis (ATCC 29212) (Enterococcus sp.; [1]): 32 µg/mL (≈ 22.4 µM)
MIC Enterococcus faecalis (GC 2242) (Enterococcus sp.; [1]): 32 µg/mL (≈ 22.4 µM)
MIC Enterococcus faecalis (GC 2691) (Enterococcus sp.; [1]): 32 µg/mL (≈ 22.4 µM)
MIC Enterococcus faecalis (GC 3059) (Enterococcus sp.; [1]): 32 µg/mL (≈ 22.4 µM)
MIC Enterococcus faecalis (GC 4552) (Enterococcus sp.; [1]): 32 µg/mL (≈ 22.4 µM)
MIC Enterococcus faecalis (GC 4553) (Enterococcus sp.; [1]): 32 µg/mL (≈ 22.4 µM)
MIC Enterococcus faecalis (GC 4554) (Enterococcus sp.; [1]): 32 µg/mL (≈ 22.4 µM)
MIC Enterococcus faecalis (GC 6189) (Enterococcus sp.; [1]): 32 µg/mL (≈ 22.4 µM)
MIC Enterococcus faecium (GC 2243) (Enterococcus sp.; [1]): 32 µg/mL (≈ 22.4 µM)
MIC Enterococcus faecium (GC 4556) (Enterococcus sp.; [1]): 32 µg/mL (≈ 22.4 µM)
MIC Enterococcus faecium (GC 4557) (Enterococcus sp.; [1]): 8 µg/mL (≈ 5.59 µM)
MIC Staphylococcus aureus (ATCC 29213) (Staphylococcus sp.; strain ATCC 29213): 16 µg/mL (≈ 11.2 µM)
MIC Staphylococcus aureus (GC 1131) (Staphylococcus sp.; strain GC 1131): 16 µg/mL (≈ 11.2 µM)
MIC Staphylococcus aureus (GC 3051) (Staphylococcus sp.; strain GC 3051): 16 µg/mL (≈ 11.2 µM)
MIC Staphylococcus aureus (GC 3053) (Staphylococcus sp.; strain GC 3053): 16 µg/mL (≈ 11.2 µM)
MIC Staphylococcus aureus (GC 4541) (Staphylococcus sp.; strain GC 4541): 8 µg/mL (≈ 5.59 µM)
MIC Staphylococcus aureus (GC 4542) (Staphylococcus sp.; strain GC 4542): 4 µg/mL (≈ 2.79 µM)
MIC Staphylococcus aureus-SMITH (GC 4543) (Staphylococcus sp.; strain GC 4543): 4 µg/mL (≈ 2.79 µM)
MIC Staphylococcus aureus (GC 4544) (Staphylococcus sp.; strain GC 4544): 16 µg/mL (≈ 11.2 µM)
MIC Staphylococcus aureus (GC 4545) (Staphylococcus sp.; strain GC 4545): 16 µg/mL (≈ 11.2 µM)
MIC Coagulase Negative Staphylococcus (GC 4547) (Staphylococcus sp.; strain GC 4547): 8 µg/mL (≈ 5.59 µM)
MIC Coagulase Negative Staphylococcus (GC 4548) (Staphylococcus sp.; strain GC 4548): 8 µg/mL (≈ 5.59 µM)
MIC Coagulase Negative Staphylococcus (GC 4549) (Staphylococcus sp.; strain GC 4549): 8 µg/mL (≈ 5.59 µM)
MIC Coagulase Negative Staphylococcus (GC 4551) (Staphylococcus sp.; strain GC 4551): 16 µg/mL (≈ 11.2 µM)
MIC Coagulase Negative Staphylococcus (GC 6257) (Staphylococcus sp.; strain GC 6257): 8 µg/mL (≈ 5.59 µM)
MIC Streptococcus agalactiae (GC 4564) (Streptococcus sp.; Streptococcus agalactiae (GC 4564)): 16 µg/mL (≈ 11.2 µM)
MIC Streptococcus pneumoniae (ATCC 6301) (Streptococcus sp.; Streptococcus pneumoniae (ATCC 6301)): 8 µg/mL (≈ 5.59 µM)
MIC Streptococcus pneumoniae (GC 1894) (Streptococcus sp.; Streptococcus pneumoniae (GC 1894)): 4 µg/mL (≈ 2.79 µM)
MIC Streptococcus pneumoniae (GC 4565) (Streptococcus sp.; Streptococcus pneumoniae (GC 4565)): 8 µg/mL (≈ 5.59 µM)
MIC Streptococcus pyogenes (GC 4563) (Streptococcus sp.; Streptococcus pyogenes (GC 4563)): 16 µg/mL (≈ 11.2 µM)
MIC Streptococcus agalactiae (GC 4564) (Streptococcus sp.; [1]): 16 µg/mL (≈ 11.2 µM)
MIC Streptococcus pneumoniae (ATCC 6301) (Streptococcus sp.; [1]): 8 µg/mL (≈ 5.59 µM)
MIC Streptococcus pneumoniae (GC 1894) (Streptococcus sp.; [1]): 4 µg/mL (≈ 2.79 µM)
MIC Streptococcus pneumoniae (GC 4565) (Streptococcus sp.; [1]): 8 µg/mL (≈ 5.59 µM)
MIC Streptococcus pyogenes (GC 4563) (Streptococcus sp.; [1]): 16 µg/mL (≈ 11.2 µM)
Structure (SMILES): COc1ccc2cc(C3OCC4OC(OC5C(CO)OC(Oc6ccc(CC7NC(=O)C(C(C)c8ccccc8)NC(=O)CNC(=O)C(CO)NC(=O)C(CC8CNC(=N)N8C8OC(CO)C(O)C(O)C8O)NC(=O)C(CC8CNC(=N)N8)NC7=O)cc6)C(O)C5O)C(O)C(O)C4O3)ccc2c1 (stereo not shown) [Example 190]
MIC Staphylococcus haemolyticus (GC 4546) (Staphylococcus sp.; strain GC 4546): 8 µg/mL (≈ 5.59 µM)

— patent US8247211B2, “Glycopeptide antibiotics” (American Cyanamid Company, priority 2001, dated 2012)
